Measurements reported in patent US9487489B2, “Halogen-substituted pyrazole derivatives as pest-control agents” (BAYER CROPSCIENCE AKTIENGESELLSCHAFT, priority 2013, dated 2016).

Assays:
[1] = test system: green peach aphid (Myzus persicae); assay: Myzus persicae spray test (MYZUPE); assay type: in vivo; conditions: Chinese cabbage leaf discs, after 6 days
Procedure, shortened: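 Chinese cabbage leaf discs infested with all aphid stages sprayed with compound in acetone/DMF with alkylaryl polyglycol ether emulsifier in water. Efficacy (% aphids killed; 100% all dead, 0% none) scored after 6 days.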

[2] = test system: cattle ticks (Boophilus microplus) Parkhurst strain, SP-resistant; assay: Boophilus microplus dip test (BOOPMI Dip); assay type: in vivo; conditions: application rate 100 ppm, assessed after 7 days
Description: B. Boophilus microplus-dip Test (BOOPMI Dip)
Test animals: cattle ticks (Boophilus microplus) Parkhurst strain, SP-resistant
Solvent: dimethyl sulphoxide
10 mg of active compound are dissolved in 0.5 ml of dimethyl sulphoxide. For the purpose of preparing a suitable formulation, the active compound solution is diluted with water to the concentration desired in each case.
This active compound preparation is pipetted into tubes. 8-10 adult engorged female cattle ticks (Boophilus microplus) are transferred into a further tube with holes. The tube is immersed into the active compound formulation, and all ticks are completely wetted. After the liquid has run out, the ticks are transferred on filter discs into plastic dishes and stored in a climate-controlled room.
The activity is assessed after 7 days by laying of fertile eggs. Eggs whose fertility is not visible from the outside are stored in a climate-controlled cabinet until the larvae hatch after about 42 days. An efficacy of 100% means that none of the ticks has laid any fertile eggs; 0% means that all eggs are fertile.

[3] = test system: adult cat fleas (Ctenocephalides felis); assay: Ctenocephalides felis oral test (CTECFE); assay type: in vivo; conditions: application rate 100 ppm in citrated cattle blood; after 2 days
Procedure, shortened: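 Mortality read at 2 days as percent of fleas killed. Compound predissolved in DMSO, diluted into citrated cattle blood and offered to roughly 20 unfed adult C. felis via parafilm membrane feeder.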

[4] = test system: larvae of the mustard beetle (Phaedon cochleariae); assay: Phaedon cochleariae spray test (PHAECO); assay type: in vivo; conditions: Chinese cabbage leaf discs, after 7 days
Procedure, shortened: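 Kill of mustard beetle larvae is read as % mortality 7 days after spraying. Spray liquid: active compound in acetone plus dimethylformamide, brought up with water holding 1000 ppm alkylaryl polyglycol ether emulsifier and diluted further in emulsifier-water.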

[5] = test system: greenhouse red spider mite (Tetranychus urticae); assay: Tetranychus urticae spray test, OP-resistant (TETRUR); assay type: in vivo; conditions: bean leaf discs, after 6 days
Procedure, shortened: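 Percent kill, scored 6 days post-spray (0% = none dead, 100% = all dead), on Phaseolus vulgaris leaf discs infested with every life stage of the OP-resistant spider mite. Compound dissolved in acetone plus DMF, diluted to test concentration with emulsifier-containing water (1000 ppm).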

[6] = test system: adult cat fleas (Ctenocephalides felis); assay: Ctenocephalides felis in vitro contact test with adult cat fleas (T1); conditions: after 48 h
Procedure, shortened: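 Adult cat fleas (Ctenocephalides felis), 5-10 per tube, were exposed to the inner surface of 25 ml test tubes coated with compound in acetone. Tubes were incubated lying flat under ambient conditions. Efficacy was then read by standing tubes upright and knocking the fleas to the floor. Fleas that stayed motionless or moved uncoordinatedly counted as dead or moribund, where 100% means all fleas dead or moribund and 0% means none harmed.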

[7] = test system: engorged adult female cattle ticks (Boophilus microplus); assay: Boophilus microplus injection test (BOOPMI Inj); assay type: in vivo; conditions: application rate 20 μg/animal; injection into abdomen; assessed after 7 days
Procedure, shortened: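 Efficacy is read at 7 days as fertile egg laying (100% = no fertile eggs laid; 0% = all eggs fertile), with eggs of unclear fertility stored until larvae hatch at about 42 days. Five engorged adult females per dose each receive an abdominal injection of 1 μl compound dissolved in DMSO.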

[8] = test system: caterpillars of the armyworm (Spodoptera frugiperda); assay: Spodoptera frugiperda spray test (SPODFR); assay type: in vivo; conditions: maize leaf discs, after 7 days
Procedure, shortened: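 Percent kill read at day 7 on caterpillar-infested maize leaf discs. Discs were first sprayed with aqueous emulsifier-containing (1000 ppm) preparations made from acetone/dimethylformamide solutions, and dried. Scale: 0% none dead, 100% all dead.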

[9] = test system: L1 larvae of the Australian sheep blowfly (Lucilia cuprina); assay: Lucilia cuprina test (LUCICU); assay type: in vivo; conditions: application rate 100 ppm; after 2 days
Procedure, shortened: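 Percent mortality read at 2 days; 100% = all larvae killed, 0% = none. Test compound, predissolved in DMSO and water-diluted to the wanted level, was mixed into minced horsemeat holding roughly 20 first-instar larvae.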

[10] = test system: adult houseflies (Musca domestica); assay: Musca domestica test (MUSCDO); assay type: in vivo; conditions: application rate 100 ppm; after 2 days
Procedure, shortened: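 Groups of 10 adult Musca domestica exposed to a sugar-soaked sponge treated with the water-diluted DMSO preparation of compound at the chosen concentration. Percent kill read at day 2, where 0% means no flies killed and 100% all killed.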

[11] = logP determination by HPLC on a reversed-phase column (C18), EEC Directive 79/831 Annex V.A8; assay type: physicochemical; conditions: HPLC on reversed-phase column (C18), acetonitrile/water with formic acid, EEC Directive 79/831 Annex V.A8
Procedure, shortened: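 Per EEC 79/831 Annex V.A8, values derive from HPLC retention at 2.0 ml/min and 55° C on a 50*4.6 C18 column. The 10→95% acetonitrile gradient (0.1%/0.09% formic acid) lasted 4.25 min plus a 1.25 min hold; mass detection was by MSD.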

[12] = test system: adult dog ticks (Rhipicephalus sanguineus); assay: Rhipicephalus sanguineus in vitro contact test with adult brown dog ticks (T2); conditions: after 48 h
Procedure, shortened: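 Acetone solutions coated onto test tube walls and floor, giving 5 μg/cm^2 at 900 ppm. Five to ten adult ticks held per tube in the dark at room temperature for 48 h, then heated at 45-50° C for up to 5 min; efficacy is the percentage of dead or moribund ticks unable to climb away.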

| SMILES | efficacy in % ([1]; application rate 500 g/ha) | efficacy (laying of fertile eggs) [2] | efficacy (kill in %) [3] | efficacy in % ([4]; application rate 500 g/ha) | efficacy in % ([5]; application rate 500 g/ha) | efficacy (dead or moribund fleas) ([6]; application rate 1 μg/cm^2) | efficacy (dead or moribund fleas) ([6]; application rate 5 μg/cm^2) | efficacy (laying of fertile eggs) [7] | efficacy in % ([8]; application rate 500 g/ha) | efficacy (kill in %) [9] | efficacy (kill in %) [10] | efficacy in % ([4]; application rate 100 g/ha) | logP [11] | efficacy in % ([8]; application rate 100 g/ha) | efficacy (dead or moribund ticks) ([12]; application rate 1 μg/cm^2) | efficacy (dead or moribund ticks) ([12]; application rate 5 μg/cm^2) | efficacy in % ([5]; application rate 100 g/ha) | efficacy in % ([1]; application rate 100 g/ha) |
| --- | --- | --- | --- | --- | --- | --- | --- | --- | --- | --- | --- | --- | --- | --- | --- | --- | --- | --- |
| COCCNC(=O)c1cc(-c2cnn(-c3c(C(F)(F)F)c(C(F)(F)C(F)(F)F)nn3C)c2)ccc1Cl [Ic-139] | 100% | 100% | 100% | 100% | 100% | 100% | 100% | 100% | 100% |  |  |  |  |  |  |  |  |  |
| Cn1nc(C(F)(F)C(F)(F)F)c(C(F)(F)F)c1-n1cc(-c2ccc(Cl)c(C(=O)NC3(C(N)=O)CC3)c2)cn1 [Ic-29] |  | 80% | 100% |  |  | 100% | 100% | 100% |  | 100% | 100% | 100% | 3.07 | 100% |  |  |  |  |
| Cn1nc(C(F)(F)F)c(CF)c1-n1cc(-c2ccc(Cl)c(C(=O)NC3CC3)c2)cn1 [Ic-103] |  | 90% | 100% |  |  |  |  | 100% |  | 100% | 80% | 100% | 2.89 | 100% | 100% | 100% | 100% |  |
| Cn1ccc(NC(=O)c2cc(-c3cnn(-c4c(C(F)(F)F)c(C(F)(F)C(F)(F)F)nn4C)c3)ccc2Cl)n1 [Ic-159] | 100% | 80% | 100% | 100% | 100% | 100% | 100% | 100% | 100% | 100% | 100% |  |  |  |  |  |  |  |
| Cn1nc(C(F)(F)C(F)(F)F)c(C(F)(F)F)c1-n1cc(-c2ccc(Cl)c(C(=O)NCC=CCl)c2)cn1 [Ic-112] |  | 100% |  |  |  | 100% | 100% |  |  |  |  |  | 4.13 | 100% | 100% | 100% | 100% | 100% |
| Cc1coc(NC(=O)c2cc(-c3cnn(-c4c(C(F)(F)F)c(C(F)(F)C(F)(F)F)nn4C)c3)ccc2Cl)n1 [Ic-160] |  | 100% | 100% |  |  | 100% | 100% | 100% |  | 100% | 100% |  |  |  | 100% | 100% |  |  |
| Cn1nc(C(F)(F)C(F)(F)F)c(C(F)(F)F)c1-n1cc(-c2ccc(Cl)c(C(=O)NCC(C)(F)F)c2)cn1 [Ic-80] |  | 80% | 100% |  |  |  |  | 100% |  | 100% | 100% | 100% | 4.05 | 100% |  |  | 100% | 90% |
| C=C=CCNC(=O)c1cc(-c2cnn(-c3c(C(F)(F)F)c(C(F)(F)C(F)(F)F)nn3C)c2)ccc1Cl [Ic-111] |  | 100% |  |  |  | 100% | 100% |  |  |  |  | 100% | 4.04 | 100% | 100% | 100% | 100% | 100% |
| Cn1nc(C(F)(F)C(F)(F)F)c(C(F)(F)F)c1-n1cc(-c2ccc(F)c(C(=O)NC3(C#N)CC3)c2F)cn1 [Ic-175] |  | 90% | 100% | 100% | 100% | 100% | 100% | 100% | 100% | 100% | 100% |  |  |  |  |  |  |  |
| CC(C)NC(=O)c1cc(-c2cnn(-c3c(C(F)(F)F)c(C(F)(F)C(F)(F)F)nn3C)c2)ccc1Cl [Ic-113] |  | 100% |  |  |  | 100% | 100% |  |  |  |  | 100% | 4.01 | 100% | 80% | 100% | 100% | 90% |
| C#CCNC(=O)c1cc(-c2cnn(-c3c(C(F)(F)F)c(C(F)(F)C(F)(F)F)nn3C)c2)ccc1Cl [Ic-109] |  | 100% |  |  |  | 100% | 100% |  |  |  |  | 100% | 3.69 | 100% | 100% | 100% | 100% | 100% |
